In ChEMBL document CHEMBL1127089, “Non-nucleoside inhibitors of HIV-1 reverse transcriptase: molecular modeling and X-ray structure investigations” (J Med Chem, 1993):

Target: Human immunodeficiency virus type 1 reverse transcriptase (Human immunodeficiency virus 1, UniProt Q72547)
Assay: In vitro for inhibitory activity against HIV-1 Reverse Transcriptase

SMILES | IC50 [µM]
Cc1cccc(C23SCCN2C(=O)c2ccccc23)c1 (stereo unspecified) | 0.03
O=C1c2ccccc2C2(c3cccc4ccccc34)SCCN12 (stereo unspecified) | 0.15
CC(C)=CCN1Cc2cccc3[nH]c(=S)n(c23)C[C@@H]1C | 0.16
O=C1c2ccccc2[C@@]23CC=CCC12c1ccccc1C3=O (stereo partly specified) | 8.7
O=C1c2ccccc2[C@H]2SCCN1c1ccccc12 | 0.83
O=C1c2ccccc2C2(c3ccccc3)SCCN12 (stereo unspecified) | 0.28
